Experimental data: patent US4450269A, “Mono-5-substituted-3-chloro-4H-1,2,6-thiadiazin-4-one antifungal agents” (FMC Corporation, priority 1980, dated 1984)
Where a name gives a salt, the structure may show the parent alone. Read-outs that look alike come from different tables or passages of the source.

Assays:
Phytophthora infestans [1] = type: cell-based; details: PI, 48 hours
Phytophthora infestans [2] = assay: whole plant or invertebrate; type: in vivo; details: for pest or weed control at 150 ppm: Phytophthora infestans, in Solanum lycopersicum, foliar, read-out: Percent Disease Control, foliar, tomato late blight, 150 ppm, protective; for Percent Disease Control, foliar, tomato late blight: 150 ppm, protective
Cladosporium cucumerinum = assay: Mycelial growth test; type: cell-based; details: CC; for inhibition at 5 ppm / inhibition at 10 ppm / inhibition at 40 ppm / inhibition at 20 ppm: Cladosporium cucumerinum, read-out: Percent Fungus Growth Inhibition; for inhibition at 5 ppm / inhibition at 10 ppm / inhibition at 40 ppm: 72 h; for inhibition at 20 ppm: CC20, 72 h; for Percent Fungus Growth Inhibition: 72 hours
From the text: |CC = Cladosporium cucumerinum

Row | Compound | Spore Germination Rating (Phytophthora infestans [1]; 1.0 ppm) | Spore Germination Rating (Phytophthora infestans [1]; 2.5 ppm) | Spore Germination Rating (Phytophthora infestans [1]; 10 ppm) | Spore Germination Rating (Phytophthora infestans [1]; 40 ppm) | pest or weed control at 150 ppm (Phytophthora infestans [2]) [%] | inhibition at 5 ppm (Cladosporium cucumerinum; 5 ppm) [%] | inhibition at 10 ppm (Cladosporium cucumerinum; 10 ppm) [%] | inhibition at 40 ppm (Cladosporium cucumerinum; 40 ppm) [%] | inhibition at 20 ppm (Cladosporium cucumerinum; 20 ppm) [%] | Percent Disease Control, foliar, tomato late blight (Phytophthora infestans [2]) [%] | Percent Fungus Growth Inhibition (Cladosporium cucumerinum; 5 ppm) [%] | Percent Fungus Growth Inhibition (Cladosporium cucumerinum; 10 ppm) [%] | Percent Fungus Growth Inhibition (Cladosporium cucumerinum; 20 ppm) [%] | Percent Fungus Growth Inhibition (Cladosporium cucumerinum; 40 ppm) [%] | Spore Germination Rating (Phytophthora infestans [1]; 2.5 ppm, hydrochloride) | Percent Disease Control, foliar, tomato late blight (Phytophthora infestans [2]; hydrochloride) [%] | Percent Fungus Growth Inhibition (Cladosporium cucumerinum; 5 ppm, hydrochloride) [%] | Percent Fungus Growth Inhibition (Cladosporium cucumerinum; 10 ppm, hydrochloride) [%] | Percent Fungus Growth Inhibition (Cladosporium cucumerinum; 40 ppm, hydrochloride) [%]
1 | O=c1c(Cl)nsnc1Oc1ccc([N+](=O)[O-])cc1 [Compound 9, 3-chloro-5-(4-nitrophenoxy)-4H--1,2,6-thiadiazin-4-one] | 0 (0-10) | 0 (0-10) | 0 (0-10) | 0 (0-10) | 90 | 54 | 75 | 100 | 92 | – | – | – | – | – | – | – | – | – | –
2 | Cc1cc(Cl)ccc1Oc1nsnc(Cl)c1=O [Compound 55, 3-chloro-5-(4-chloro-2-methylphenoxy)-4H--1,2,6-thiadiazin-4-one] | 1 (10-40) | 0 (0-10) | 0 (0-10) | 0 (0-10) | 90 | 0 | 11 | 28 | 22 | – | – | – | – | – | – | – | – | – | –
3 | O=c1c(Cl)nsnc1Oc1cccc2ccccc12 [Compound 32, 3-chloro-5(1-naphthoxy)-4H-1,2,6-thiadiazin-4-one] | 3 (60-80) | 1 (10-40) | 0 (0-10) | 0 (0-10) | 0 | 35 | 46 | 100 | 69 | – | – | – | – | – | – | – | – | – | –
4 | Cc1cc(C)cc(Oc2nsnc(Cl)c2=O)c1 [Compound 25, 3-chloro-5-(3,5-dimethylphenoxy)-4H--1,2,6-thiadiazin-4-one] | 4 (80-100) | 1 (10-40) | 0 (0-10) | 0 (0-10) | 100 | 27 | 50 | 100 | 77 | – | – | – | – | – | – | – | – | – | –
5 | O=c1c(Cl)nsnc1Oc1cccc(Cl)c1 [Compound 13, 3-chloro-5-(3-chlorophenoxy)-4H--1,2,6-thiadiazin-4-one] | 0 (0-10) | 0 (0-10) | 0 (0-10) | 0 (0-10) | 98 | 58 | 67 | 100 | 100 | – | – | – | – | – | – | – | – | – | –
6 | O=C(O)Cc1ccccc1Oc1nsnc(Cl)c1=O [Compound 45, 3-(2-carboxymethylphenoxy)-5-chloro-4H--1,2,6-thiadiazin-4-one] | 4 (80-100) | 4 (80-100) | 0 (0-10) | 0 (0-10) | 0 | 0 | 0 | 0 | 12 | – | – | – | – | – | – | – | – | – | –
7 | CSc1ccc(Oc2nsnc(Cl)c2=O)cc1 [Compound 39, 3-chloro-5-[(4-methylthio)phenoxy]-4H-1,2,6,-thiadiazin-4-one] | 4 (80-100) | 4 (80-100) | 3 (60-80) | 3 (60-80) | 0 | 16 | 16 | 32 | 23 | – | – | – | – | – | – | – | – | – | –
8 | O=c1c(Cl)nsnc1Oc1ccc(F)cc1 [Compound 11, 3-chloro-5-(4-fluorophenoxy)-4H--1,2,6-thiadiazin-4-one] | 4 (80-100) | 0 (0-10) | 0 (0-10) | 0 (0-10) | 100 | 27 | 64 | 100 | 100 | – | – | – | – | – | – | – | – | – | –
9 | Cc1cc(Oc2nsnc(Cl)c2=O)ccc1Cl [Compound 54, 3-chloro-5-(4-chloro-3-methylphenoxy)-4H--1,2,6-thiadiazin-4-one] | 1 (10-40) | 0 (0-10) | 0 (0-10) | 0 (0-10) | 0 | 14 | 28 | 50 | 33 | – | – | – | – | – | – | – | – | – | –
10 | 3-chloro-5-(bromophenoxy)-4H-1,2,6-thiadiazin-4-one [Compound 33] | 0 (0-10) | 0 (0-10) | 0 (0-10) | 0 (0-10) | – | – | – | – | – | 0 | 11 | 28 | 61 | 83 | – | – | – | – | –
11 | COc1cc(Oc2nsnc(Cl)c2=O)cc(OC)c1C(C)=O [Compound 61, 3-[(4-acetyl-3,5-dimethoxy)-phenoxy]-5-chloro-4H--1,2,6-thiadiazin-4-one] | 4 (80-100) | 4 (80-100) | 3 (60-80) | 0 (0-10) | 0 | 6 | 23 | 52 | 32 | – | – | – | – | – | – | – | – | – | –
12 | Cc1ccccc1Oc1nsnc(Cl)c1=O [Compound 22, 3-chloro-5-(2-methylphenoxy)-4H--1,2,6-thiadiazin-4-one] | 0 (0-10) | 0 (0-10) | 0 (0-10) | 0 (0-10) | 0 | 31 | 46 | 92 | 69 | – | – | – | – | – | – | – | – | – | –
13 | O=c1c(Cl)nsnc1Oc1cc(Cl)cc(Cl)c1 [Compound 20, 3-chloro-5-(3,5-dichlorophenoxy)-4H--1,2,6-thiadiazin-4-one] | 0 (0-10) | 0 (0-10) | 0 (0-10) | 0 (0-10) | 0 | 100 | 100 | 100 | 100 | – | – | – | – | – | – | – | – | – | –
14 | O=c1c(Cl)nsnc1Oc1ccccc1Cl [Compound 14, 3-chloro-5-(2-chlorophenoxy)-4H--1,2,6-thiadiazin-4-one] | 0 (0-10) | 0 (0-10) | 0 (0-10) | 0 (0-10) | 0 | 67 | 50 | 100 | 100 | – | – | – | – | – | – | – | – | – | –
15 | Nc1ccc(Oc2nsnc(Cl)c2=O)cc1 [Compound 27, 5-(4-aminophenoxy)-3-chloro-4H--1,2,6-thiadiazine-4-one hydrochloride] | – | – | – | – | – | – | – | – | – | – | – | – | – | – | 3 (60-80) | 98 | 31 | 40 | 54
16 | O=c1c(Cl)nsnc1Oc1ccccc1 [Compound 2, 3-chloro-5-phenoxy-4H--1,2,6-thiadiazin-4-one] | 0 (0-10) | 1 (10-40) | 1 (10-40) | 0 (0-10) | 0 | 46 | 58 | 100 | 100 | – | – | – | – | – | – | – | – | – | –
17 | Cc1cc(Cl)c(Oc2nsnc(Cl)c2=O)cc1C [Compound 58, 3-chloro-5-[(2-chloro-4,5-dimethyl)phenoxy]-4H--1,2,6-thiadiazin-4-one] | 3 (60-80) | 2 (40-60) | 0 (0-10) | 0 (0-10) | 0 | 44 | 44 | 61 | 42 | – | – | – | – | – | – | – | – | – | –
18 | CC(=O)Nc1cccc(Oc2nsnc(Cl)c2=O)c1 [Compound 42, 3-[(3-N--acetylamino)-phenoxy]-5-chloro-4H--1,2,6-thiadiazin-4-one] | 4 (80-100) | 4 (80-100) | 3 (60-80) | 0 (0-10) | 0 | 14 | 22 | 18 | 14 | – | – | – | – | – | – | – | – | – | –
19 | O=c1c(Cl)nsnc1Oc1ccccc1Br [Compound 34, 3-chloro-5-(2-bromophenoxy)-4H-1,2,6,-thiadiazin-4-one] | 4 (80-100) | 1 (10-40) | 0 (0-10) | 0 (0-10) | 0 | 6 | 28 | 86 | 61 | – | – | – | – | – | – | – | – | – | –
20 | C[S+]([O-])c1ccc(Oc2nsnc(Cl)c2=O)cc1 (centres unmarked) [Compound 40, 3-chloro-5-[(4-methylsulfinyl)phenoxy]-4H-1,2,6,-thiadiazin-4-one] | 4 (80-100) | 3 (60-80) | 2 (40-60) | 0 (0-10) | 75 | 0 | 48 | 48 | 32 | – | – | – | – | – | – | – | – | – | –
21 | O=c1c(Cl)nsnc1Oc1cccc(Cl)c1Cl [Compound 19, 3-chloro-5-(2,3-dichlorophenoxy)-4H--1,2,6-thiadiazin-4-one] | 3 (60-80) | 0 (0-10) | 0 (0-10) | 0 (0-10) | 0 | 100 | 100 | 100 | 100 | – | – | – | – | – | – | – | – | – | –
22 | Cc1ccc(Oc2nsnc(Cl)c2=O)cc1 [Compound 3, 3-chloro-5-(4-methylphenoxy)-4H--1,2,6-thiadiazin-4-one] | 3 (60-80) | 2 (40-60) | 0 (0-10) | 0 (0-10) | 50 | 58 | 67 | 100 | 100 | – | – | – | – | – | – | – | – | – | –
23 | O=c1c(Cl)nsnc1Oc1cccc(C(F)(F)F)c1 [Compound 44, 3-chloro-5-[(3-trifluoromethyl)phenoxy]-4H--1,2,6-thiadiazin-4-one] | 2 (40-60) | 0 (0-10) | 0 (0-10) | 0 (0-10) | 0 | 36 | 56 | 100 | 92 | – | – | – | – | – | – | – | – | – | –
